Bounds are passed on as bounds.

The target in one experiment is T1, Myeloperoxidase (Homo sapiens, UniProt P05164).
T1 sequence (P05164 whole entry): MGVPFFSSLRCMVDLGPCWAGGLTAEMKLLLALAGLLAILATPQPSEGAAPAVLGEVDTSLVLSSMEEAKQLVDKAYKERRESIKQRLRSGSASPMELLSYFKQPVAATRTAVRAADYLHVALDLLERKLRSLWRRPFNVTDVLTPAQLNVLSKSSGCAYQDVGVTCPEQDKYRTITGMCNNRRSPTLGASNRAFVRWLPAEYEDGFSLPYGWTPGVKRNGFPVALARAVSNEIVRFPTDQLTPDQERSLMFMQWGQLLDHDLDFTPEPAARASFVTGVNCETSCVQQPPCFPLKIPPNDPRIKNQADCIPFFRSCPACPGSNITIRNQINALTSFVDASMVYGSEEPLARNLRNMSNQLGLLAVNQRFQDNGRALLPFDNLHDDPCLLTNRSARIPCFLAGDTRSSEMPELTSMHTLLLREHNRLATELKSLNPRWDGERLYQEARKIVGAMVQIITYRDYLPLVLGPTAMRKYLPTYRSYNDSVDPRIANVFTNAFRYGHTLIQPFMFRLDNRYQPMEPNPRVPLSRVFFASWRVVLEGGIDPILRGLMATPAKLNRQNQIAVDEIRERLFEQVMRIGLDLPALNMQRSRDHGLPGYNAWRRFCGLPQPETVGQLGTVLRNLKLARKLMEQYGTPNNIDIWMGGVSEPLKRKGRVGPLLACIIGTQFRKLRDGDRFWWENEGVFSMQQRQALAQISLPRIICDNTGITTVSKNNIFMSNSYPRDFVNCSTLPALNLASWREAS
The experiment can be described thus: MPO Peroxidation (Amplex Red) Assay: MPO peroxidation activity was measured in 100 mM KPi (pH 7.4) by utilizing the non-fluorescent reagent Amplex Red (Invitrogen catalog #A12222) which can be oxidized to the highly fluorescent resorufin. Amplex Red is oxidized by the peroxidase action of MPO to resorufin. […] Enzyme and compound were preincubated for ten minutes at rt.After the ten minute preincubation, 25 μL of an Amplex Red mixture containing 200 μM Amplex Red and 10 mM H2O2 was added to the plate.
As to `Cc1nn(C)c(C)c1CSc1cc(N)nc2[nH]nnc12`, the 50% inhibitory concentration (IC50) was determined as 30 nM.

The next experiment has as its target T1, Myeloperoxidase. The experiment can be described thus: MPO Chlorination (APF) Assay : MPO chlorination activity was measured in 100 mM KPi (pH 7.4) by utilizing the non-fluorescent reagent Aminophenyl fluorescein (APF, Invitrogen catalog #A36003). APF is cleaved by (—OCl) to yield the fluorescent compound fluorescein. […] Enzyme, inhibitor, and chloride were preincubated for ten minutes at rt.After the ten minute preincubation, 25 μL of an APF mixture containing […], 120 mM NaCl and 10 μM H2O2 was added to the plate using the internal dispensing system of a Hammatsu FDSS 6000. […] IC50 values for inhibitors were calculated by taking the slope of the linear portion of the kinetic measurement (20 seconds to ˜80-120 secs).IC50 values were calculated by determining the slope of the linear portion of the kinetic trace (180-540 secs), and using that calculated slope to determine % inhibition occurring at each concentration of inhibitor using the following equation:Y = A + B - A 1 + ( C / x ) Dwhere A=minimal Y value (activity level of inhibited sample), B=maximal Y value (activity level of uninhibited sample), C=Log IC50, D=Hill Slope, x=concentration of inhibitor.
As for `Cn1cc(CSc2cc(N)nc3[nH]nnc23)c(C(F)(F)F)n1`, the IC50 was under 60 nM.

In the case of `N#Cc1cccc(Br)c1CSc1cc(N)nc2[nH]nnc12`, the IC50 was under 60 nM.

Take `CCc1nn(C)c(Cl)c1CSc1cc(N)nc2[nH]nnc12`: the IC50 is under 60 nM.

For `Cn1nc(C(F)(F)F)c(CSc2cc(N)nc3[nH]nnc23)c1F`, the IC50 is under 60 nM.

For `Cc1nn(C)c(C)c1CSc1cc(N)nc2[nH]nnc12`, the IC50 is 80 nM.

In the case of `N#Cc1c(F)cccc1CSc1cc(N)nc2[nH]nnc12`, the IC50 was under 60 nM.

As to `N#Cc1ccc(Cl)c(CSc2cc(N)nc3[nH]nnc23)c1`, the IC50 was under 60 nM.

`Cn1ncc(CSc2cc(N)nc3[nH]nnc23)c1C(F)(F)F`: the half-maximal inhibitory concentration (IC50) is under 60 nM.

A word on the IC50: it is the concentration needed to halve the response being measured.
